This note sets out measurements from patent US8859608B2, “Spiro amino compounds suitable for the treatment of inter alia sleep disorders and drug addiction” (Rottapharm Biotech S.R.L., priority 2009, dated 2014).

One experiment deals with T1, human OX1 receptor (Homo sapiens, UniProt O43613).
T1 sequence (O43613 1-425): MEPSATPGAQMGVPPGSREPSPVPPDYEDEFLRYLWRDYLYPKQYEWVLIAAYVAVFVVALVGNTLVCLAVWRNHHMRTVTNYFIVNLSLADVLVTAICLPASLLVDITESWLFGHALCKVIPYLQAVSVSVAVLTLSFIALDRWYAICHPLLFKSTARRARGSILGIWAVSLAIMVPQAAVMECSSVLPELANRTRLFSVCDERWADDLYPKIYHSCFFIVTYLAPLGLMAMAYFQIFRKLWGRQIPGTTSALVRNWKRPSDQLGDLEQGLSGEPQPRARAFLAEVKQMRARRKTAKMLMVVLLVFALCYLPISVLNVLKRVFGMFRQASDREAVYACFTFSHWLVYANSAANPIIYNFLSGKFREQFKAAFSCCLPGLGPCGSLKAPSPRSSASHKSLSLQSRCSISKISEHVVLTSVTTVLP
As to the kind of experiment: FLIPR measurement of intracellular calcium, antagonistic activity at OX1. To be noted: for Kb: pKb OX1, CHO cells with human recombinant OX1, activated with orexin-A 3 nM, 1 nM-1 μM range, modified Cheng Prusoff; for selectivity against the OX1 receptor: OX1 versus OX2, from the pKb table.

The next experiment addresses T2, human OX2 receptor (Homo sapiens, UniProt O43614).
T2 sequence (O43614 1-444): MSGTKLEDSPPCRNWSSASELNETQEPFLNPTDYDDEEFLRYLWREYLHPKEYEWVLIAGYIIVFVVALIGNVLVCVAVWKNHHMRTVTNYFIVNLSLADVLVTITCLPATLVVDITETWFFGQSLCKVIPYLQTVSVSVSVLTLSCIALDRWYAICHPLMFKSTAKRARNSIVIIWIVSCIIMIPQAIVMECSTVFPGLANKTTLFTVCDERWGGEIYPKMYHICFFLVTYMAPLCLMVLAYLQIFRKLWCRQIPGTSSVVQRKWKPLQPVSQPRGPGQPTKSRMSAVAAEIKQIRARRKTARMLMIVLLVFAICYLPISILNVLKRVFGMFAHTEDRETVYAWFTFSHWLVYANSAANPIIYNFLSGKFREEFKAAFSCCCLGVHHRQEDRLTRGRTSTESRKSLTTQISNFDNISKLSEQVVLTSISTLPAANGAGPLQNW
Kind of experiment: FLIPR measurement of intracellular calcium, antagonistic activity at OX2. (In general: A change in cytosolic calcium serves as a functional read-out for many receptors and channels.)

Experimental for human OX1 receptor: (§1) Thus the plate was loaded with the calcium dye (Fluo-4NW/probenecid in HBSS, Hepes 20 mM, pH 7,4; Invitrogen) at 37° C. for 60 min. Afterward the temperature was equilibrated at 22° C. for 15 min and the [Ca2+]i measured directly on the plate by using a fluorescent plate reader (CeliLux Perkin Elmer).
(§2) After 5 min CHO cells were activated with orexin-A, 3 nM while HEK-293 cells were activated with orexin-B, 10 nM.
(§3) The antagonistic activity has been expressed as pKb (co-logarithm of the apparent dissociation constant calculated by using the modified Cheng Prusoff equation).
Experimental for human OX2 receptor: as §1, §2, §3

One may read the Kb as the equilibrium dissociation constant of an antagonist, usually derived from a functional assay. In the case of `O=C(c1ccccc1OCC1CC1)N1CCCCC1CNc1ccc(Cl)cn1` (stereo not shown) [comparison 4, reference compound], the Kb is 3.16 nM at human OX1 receptor and 158 nM on human OX2 receptor.

As to `Cc1ccc(-c2ncccn2)c(C(=O)N2CC3(CC3)C[C@H]2CNc2ccc(Cl)cn2)c1` [Compound 51, (S)-(6-(((5-chloropyridin-2-yl)amino)methyl)-5-azaspiro[2.4]heptan-5-yl)(5-methyl-2-(pyrimidin-2-yl)phenyl)methanone], the results for the Kb at human OX1 receptor and at human OX2 receptor were 6.31 nM and over 10000 nM, respectively. On to `Cc1cccc(NCC2CCCCN2C(=O)c2ccccc2-c2ccccc2)n1` (stereo not shown) [comparison 1, reference compound], for which the Kb at human OX1 receptor is 126 nM; at human OX2 receptor it was 31.6 nM. In the same order, the values of `Cc1cc(C)nc(NC[C@@H]2CC3(CCN2C(=O)c2nc(C)sc2-c2ccccc2)CC3)n1` [Compound 22, (S)-(5-(((4,6-dimethylpyrimidin-2-yl)amino)methyl)-6-azaspiro[2.5]octan-6-yl)(2-methyl-5-phenylthiazol-4-yl)methanone] are 20 nM and over 10000 nM. In the case of `Cc1cccc(NCC2CC3(CCN2C(=O)c2nc(C)sc2-c2ccccc2)CC3)n1` (racemic) [Compound 1, (±) (2-methyl-5-phenylthiazol-4-yl)(5-((6-methylpyridin-2-ylamino)methyl)-6-azaspiro[2.5]octan-6-yl)methanone], at human OX1 receptor, the “selectivity against the OX1 receptor” value was “same behaviour”. Besides, the Kb on human OX2 receptor was over 10000 nM.

For the molecule `Cc1ccnc(NC[C@@H]2CC3(CCN2C(=O)c2ccccc2-c2ccccc2)CC3)n1` [Compound 39, (S)-[1,1′-biphenyl]-2-yl(5-(((4-methylpyrimidin-2-yl)amino)methyl)-6-azaspiro[2.5]octan-6-yl)methanone], the values for the Kb on human OX1 receptor and at human OX2 receptor were 12.6 nM and over 10000 nM, respectively.

For `Cc1cc(C)nc(NC[C@@H]2CC3(CCN2C(=O)c2cc(Cl)ccc2Cl)CC3)n1` [Compound 37, (S)-(2,5-dichlorophenyl)(5-(((4,6-dimethylpyrimidin-2-yl)amino)methyl)-6-azaspiro[2.5]octan-6-yl)methanone], the Kb at human OX2 receptor is over 10000 nM. On to `Cc1nc(C(=O)N2CCCCC2CNc2ccc(Cl)cn2)c(-c2ccccc2)s1` (stereo not shown) [comparison 2, reference compound], for which the Kb at human OX1 receptor was 10 nM; on human OX2 receptor, 25.1 nM. In the same order, the values of `Cc1nc(C(=O)N2CCC3(CC3)C[C@H]2CNc2cccc(C(F)(F)F)n2)c(-c2ccccc2)s1` [Compound 18, (S)-(2-methyl-5-phenylthiazol-4-yl)(5-(((6-(trifluoromethyl)pyridin-2-yl)amino)methyl)-6-azaspiro[2.5]octan-6-yl)methanone] are 50.1 nM and over 10000 nM. For `Cc1nc(C(=O)N2CCC3(CC3)CC2CNc2ccc(C(F)(F)F)cn2)c(-c2ccccc2)s1` (single isomer, unassigned) [Compound 8, (2-methyl-5-phenylthiazol-4-yl)(5-((5-(trifluoromethyl)pyridin-2-ylamino)methyl)-6-azaspiro[2.5]octan-6-yl)methanone], on human OX1 receptor, the “selectivity against the OX1 receptor” value is “same behaviour” and the Kb was 20 nM. For the same molecule, the Kb on human OX2 receptor is over 10000 nM. With `Cc1cc(C)nc(NC[C@@H]2CC3(CCN2C(=O)c2ccccc2-c2ccccc2)CC3)n1` [Compound 35, (S)-[1,1′-biphenyl]-2-yl(5-(((4,6-dimethylpyrimidin-2-yl)amino)methyl)-6-azaspiro[2.5]octan-6-yl)methanone], the Kb on human OX1 receptor is 5.01 nM; at human OX2 receptor it was 79.4 nM. In the case of `O=C(c1ccccc1OCC1CC1)N1CCC2(CC2)CC1CNc1ccc(Cl)cn1` (racemic) [Compound 9, (±) (5-((5-chloropyridin-2-ylamino)methyl)-6-azaspiro[2.5]octan-6-yl)(2-(cyclopropylmethoxy)phenyl)methanone], the Kb was 100 nM at human OX1 receptor and over 10000 nM on human OX2 receptor. With `Cc1ccc(-n2nccn2)c(C(=O)N2CC3(CC3)C[C@H]2CNc2ccc(Cl)cn2)c1` [Compound 49, (S)-(6-(((5-chloropyridin-2-yl)amino)methyl)-5-azaspiro[2.4]heptan-5-yl)(5-methyl-2-(2H-1,2,3-triazol-2-yl)phenyl)methanone], the antagonist equilibrium constant (Kb) was 7.94 nM on human OX1 receptor and over 10000 nM on human OX2 receptor. `Cc1nc(C(=O)N2CCC3(CC3)CC2CNc2ccc(C(F)(F)F)cn2)c(-c2ccccc2)s1` (racemic) [Compound 7, (±) (2-methyl-5-phenylthiazol-4-yl)(5-((5-(trifluoromethyl)pyridin-2-ylamino)methyl)-6-azaspiro[2.5]octan-6-yl)methanone]: at human OX1 receptor, the “selectivity against the OX1 receptor” value is “same behaviour” and the Kb was 25.1 nM. The antagonist equilibrium constant (Kb) on human OX2 receptor was over 10000 nM. Take `Cc1nc(C(=O)N2CCC3(CC3)CC2CNc2ccc(Cl)cn2)c(-c2ccccc2)s1` (single isomer, unassigned) [Compound 5, (5-((5-chloropyridin-2-ylamino)methyl)-6-azaspiro[2.5]octan-6-yl)(2-methyl-5-phenylthiazol-4-yl)methanone]: the Kb is 12.6 nM on human OX1 receptor and over 1000 nM on human OX2 receptor. In the same order, the values of `COC(=O)c1cc(Cl)ccc1NCC1CC2(CCN1C(=O)c1nc(C)sc1-c1ccc(F)cc1)CC2` (racemic) [Compound 15, (±)methyl 5-chloro-2-((6-(5-(4-fluorophenyl)-2-methylthiazole-4-carbonyl)-6-azaspiro[2.5]octan-5-yl)methylamino)benzoate] are 126 nM and over 10000 nM. Consider `Cc1nc(C(=O)N2CCC3(CC3)C[C@H]2CNc2cccc(Cl)n2)c(-c2ccccc2)s1` [Compound 17, (S)-(5-(((6-chloropyridin-2-yl)amino)methyl)-6-azaspiro[2.5]octan-6-yl)(2-methyl-5-phenylthiazol-4-yl)methanone], for which the Kb at human OX1 receptor was 31.6 nM; at human OX2 receptor, over 10000 nM.

As for `Cc1cccc(NCC2CCCCN2C(=O)c2nc(C)sc2-c2ccc(F)cc2)n1` (stereo not shown) [comparison 5, reference compound], the values for the Kb at human OX1 receptor and at human OX2 receptor were 3.16 nM and 3.98 nM, respectively. In the same order, the values of `Cc1cccc(NCC2CCCCN2C(=O)c2nc(C)sc2-c2ccccc2)n1` (stereo not shown) [comparison 3, reference compound] are 1 nM and 3.16 nM. For `Cc1ccc(-n2nccn2)c(C(=O)N2CC3(CC3)C[C@H]2CNc2cccc(C)n2)c1` [Compound 50, (S)-(5-methyl-2-(2H-1,2,3-triazol-2-yl)phenyl)(6-(((6-methylpyridin-2-yl)amino)methyl)-5-azaspiro[2.4]heptan-5-yl)methanone], the Kb at human OX1 receptor was 79.4 nM; at human OX2 receptor it was over 10000 nM. On to `O=C(c1cc(F)ccc1-n1nccn1)N1CCC2(CC2)C[C@H]1CNc1ccc(Cl)cn1` [Compound 29, (S)-(5-(((5-chloropyridin-2-yl)amino)methyl)-6-azaspiro[2.5]octan-6-yl)(5-fluoro-2-(2H-1,2,3-triazol-2-yl)phenyl)methanone], for which the Kb at human OX1 receptor was 31.6 nM. On the same count and under the same terms, to `Cc1ccc(-c2ncccn2)c(C(=O)N2CCC3(CC3)C[C@H]2CNc2ccc(Cl)cn2)c1` (single isomer, unassigned) [Compound 13] belongs 25.1 nM.
